These results are taken from ChEMBL document CHEMBL4219087, “Investigation of multi-target-directed ligands (MTDLs) with butyrylcholinesterase (BuChE) and indoleamine 2,3-dioxygenase 1 (IDO1) inhibition: The design, synthesis of miconazole analogues targeting Alzheimer's disease” (Bioorg Med Chem, 2018).

A short description of data set [1]: Selectivity index, ratio of IC50 for electric eel AChE to IC50 for equine serum BChE.
Data set [2] has as its target Indoleamine 2,3-dioxygenase 1 (Homo sapiens, UniProt P14902). The data set can be described thus: Inhibition of human recombinant IDO1 using L-tryptophan as substrate after 30 mins by fluorimetric analysis.
Data set [3] deals with Acetylcholinesterase (Electrophorus electricus, UniProt O42275). The experiment in a line: Inhibition of electric eel AChE using acetylthiocholine iodide as substrate preincubated for 5 mins followed by substrate addition measured after 2 mins by modified Ellman assay.
The target of data set [4] is Cholinesterase (Equus caballus, UniProt P81908). The data set can be described thus: Inhibition of equine serum BChE using butyrylthiocholine iodide as substrate preincubated for 5 mins followed by substrate addition measured after 2 mins by modified Ellman assay. (DTNB colorimetry detects thiols as they appear.)
In data set [5] the test system is Mus musculus. The data set can be described thus: Hepatotoxicity in ICR mouse assessed as serum ALT level at 15 mg/kg, ig after 36 hrs. It counts as toxicity, organism-based. The following applies: in vivo, po.
Data set [6] concerns Mus musculus. The data set can be described thus: Hepatotoxicity in ICR mouse assessed as serum AST level at 15 mg/kg, ig after 36 hrs. It counts as toxicity, organism-based. The note with it: in vivo, po.
In data set [7] the test system is Mus musculus. The experiment in a line: Hepatotoxicity in ICR mouse assessed as serum AST level at 15 mg/kg, ig after 8 hrs. It counts as toxicity, organism-based. The note with it: in vivo, po.
For data set [8], the system named is Mus musculus. The data set can be described thus: Hepatotoxicity in ICR mouse assessed as serum AST level at 15 mg/kg, ig after 22 hrs. The following applies: in vivo, po. It counts as toxicity, organism-based.
Data set [9] relates to Mus musculus. The data set can be described thus: Hepatotoxicity in ICR mouse assessed as pericentral necrosis of hepatocytes surrounding intermediate and periportal zones at 15 mg/kg, ig after 30 hrs by hematoxylin and eosin staining-based assay. Format: toxicity, organism-based. The note with it: in vivo, po.
Data set [10] deals with Mus musculus. The experiment in a line: Hepatotoxicity in ICR mouse assessed as fatty degeneration of hepatocytes surrounding intermediate and periportal zones at 15 mg/kg, ig after 30 hrs by hematoxylin and eosin staining-based assay. It counts as toxicity, organism-based. The following applies: in vivo, po.
The subject of data set [11] is Mus musculus. The experiment in a line: Hepatotoxicity in ICR mouse assessed as serum ALT level at 15 mg/kg, ig after 22 hrs. It counts as toxicity, organism-based. The following applies: in vivo, po.
Data set [12] relates to Mus musculus. The experiment in a line: Hepatotoxicity in ICR mouse assessed as serum ALT level at 15 mg/kg, ig after 8 hrs. Format: toxicity, organism-based. The note with it: in vivo, po.
The subject of data set [13] is Mus musculus. The experiment in a line: Reversal of scopolamine-induced cognitive function impairment in ICR mouse assessed as escape latency time at 15 mg/kg, po dosed 30 mins prior to scopolamine treatment by Morris water maze test (reference value: 40.5 sec). It counts as functional.

Indoleamine 2,3-dioxygenase 1, sequence (P14902 whole entry): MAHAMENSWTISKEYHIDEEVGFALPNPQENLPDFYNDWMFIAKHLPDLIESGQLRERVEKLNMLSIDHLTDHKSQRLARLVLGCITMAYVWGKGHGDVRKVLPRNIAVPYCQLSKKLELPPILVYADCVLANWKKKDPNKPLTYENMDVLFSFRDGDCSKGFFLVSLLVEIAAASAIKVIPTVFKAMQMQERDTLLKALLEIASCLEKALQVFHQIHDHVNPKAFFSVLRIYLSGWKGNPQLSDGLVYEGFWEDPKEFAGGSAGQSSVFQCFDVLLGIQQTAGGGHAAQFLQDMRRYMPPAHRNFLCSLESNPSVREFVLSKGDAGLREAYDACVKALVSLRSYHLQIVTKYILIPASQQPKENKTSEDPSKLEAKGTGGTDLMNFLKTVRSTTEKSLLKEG
Cholinesterase, sequence (P81908 whole entry): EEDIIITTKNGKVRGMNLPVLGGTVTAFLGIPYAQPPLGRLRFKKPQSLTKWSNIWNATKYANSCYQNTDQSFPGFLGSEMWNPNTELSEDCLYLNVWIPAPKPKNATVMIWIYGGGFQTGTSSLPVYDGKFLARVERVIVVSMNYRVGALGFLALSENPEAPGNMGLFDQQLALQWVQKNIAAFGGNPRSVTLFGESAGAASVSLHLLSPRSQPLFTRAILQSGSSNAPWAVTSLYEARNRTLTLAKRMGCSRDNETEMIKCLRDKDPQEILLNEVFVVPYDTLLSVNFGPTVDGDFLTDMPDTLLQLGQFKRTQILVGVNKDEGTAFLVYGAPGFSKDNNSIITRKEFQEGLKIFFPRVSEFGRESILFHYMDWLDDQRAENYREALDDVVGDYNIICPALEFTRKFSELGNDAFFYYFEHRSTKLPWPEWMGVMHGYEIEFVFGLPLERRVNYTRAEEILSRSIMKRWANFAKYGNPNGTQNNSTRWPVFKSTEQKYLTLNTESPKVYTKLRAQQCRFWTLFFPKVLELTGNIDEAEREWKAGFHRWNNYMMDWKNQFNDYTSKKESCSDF
Acetylcholinesterase, sequence (O42275 whole entry): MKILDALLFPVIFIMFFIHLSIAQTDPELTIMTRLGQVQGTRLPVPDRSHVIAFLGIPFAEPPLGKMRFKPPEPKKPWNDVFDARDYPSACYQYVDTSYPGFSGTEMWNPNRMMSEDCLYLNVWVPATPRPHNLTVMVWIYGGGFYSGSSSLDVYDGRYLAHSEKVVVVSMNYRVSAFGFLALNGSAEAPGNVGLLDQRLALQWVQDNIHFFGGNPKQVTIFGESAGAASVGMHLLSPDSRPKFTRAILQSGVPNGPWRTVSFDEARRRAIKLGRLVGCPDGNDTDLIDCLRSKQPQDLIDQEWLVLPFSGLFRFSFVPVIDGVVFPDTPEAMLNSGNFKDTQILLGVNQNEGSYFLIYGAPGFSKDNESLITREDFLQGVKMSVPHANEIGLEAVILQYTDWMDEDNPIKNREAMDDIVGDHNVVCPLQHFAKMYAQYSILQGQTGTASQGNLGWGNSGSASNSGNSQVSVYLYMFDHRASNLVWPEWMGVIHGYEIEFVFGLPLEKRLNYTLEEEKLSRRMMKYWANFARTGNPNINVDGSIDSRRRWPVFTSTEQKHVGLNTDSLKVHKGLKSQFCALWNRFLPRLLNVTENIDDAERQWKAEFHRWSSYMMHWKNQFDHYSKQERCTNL

Take `CC(C)(C)c1ccc(COC(Cn2ccnc2)c2ccc(Cl)cc2Cl)cc1` (centres undefined): the Ratio IC50 in data set [1] came out at 0.5. Besides, the figures for the IC50 in data set [2], in data set [3] and in data set [4] were 4.4 µM, 24.3 µM and 46.3 µM, respectively.

On to `Fc1ccc(COC(Cn2ccnc2)c2ccc(Cl)cc2Cl)cc1` (centres undefined), for which the Ratio IC50 in data set [1] worked out at 2.3. In addition, the IC50 in data set [2] worked out at 4 µM; in [3], 33 µM; in [4], 14.8 µM.

Regarding `COc1cccc(COC(Cn2ccnc2)c2ccc(Cl)cc2Cl)c1` (centres undefined), the Activity entry in data set [5], in [6], in [7], in data set [8], in [9] and in data set [10] was “Non-Toxic” throughout. The Activity result in data set [11] and in data set [12] was “Non-Toxic” each time. Besides, the Ratio IC50 in data set [1] was 9.9. Further, the IC50 in data set [2] came to 2.8 µM; in data set [3] it was 81.3 µM; in data set [4], 8.3 µM. For the same molecule, in [13], the Time is recorded as 19.7 s.

Regarding `Clc1ccc(C(Cn2ccnc2)OCc2ccc(Br)cc2)c(Cl)c1` (centres undefined), the Ratio IC50 in [1] stood at 1.5. The IC50 is 5.7 µM in [2], 19.5 µM in data set [3] and 13.1 µM in data set [4].

As to `Cc1ccc(COC(Cn2ccnc2)c2ccc(Cl)cc2Cl)cc1` (centres undefined), the Ratio IC50 in [1] came out at 2.5. The values for the IC50 in data set [2], in data set [3] and in [4] were 2 µM, 26.9 µM and 10.9 µM, respectively.

Regarding `Nc1c2c(nc3ccccc13)CCCC2` [TACRINE], in data set [13], the Time is listed as 25.9 s.

On to `COc1ccc(COC(Cn2ccnc2)c2ccc(Cl)cc2Cl)cc1` (centres undefined), for which the Activity result in data set [5], in data set [6], in data set [7], in [8], in data set [9] and in [10] was “Non-Toxic” throughout. Also, the Activity result in data set [11] and in [12] was “Non-Toxic” each time. In addition, the Ratio IC50 in data set [1] amounted to 4.4. Moreover, the results for the IC50 in data set [2], in data set [3] and in [4] were 1 µM, 73.1 µM and 16.5 µM, respectively. Besides, in data set [13], the Time turned out to be 13.4 s.

For the molecule `Cc1ccccc1COC(Cn1ccnc1)c1ccc(Cl)cc1Cl` (centres undefined), the Ratio IC50 in data set [1] worked out at 2. The figures for the IC50 in data set [2], in data set [3] and in [4] were 2.2 µM, 37.5 µM and 18.4 µM, respectively.

Turning to `Fc1cccc(F)c1COC(Cn1ccnc1)c1ccc(Cl)cc1Cl` (centres undefined), the Ratio IC50 in [1] stood at 9.2. Further, the values for the IC50 in data set [2], in data set [3] and in [4] were 4.2 µM, 176 µM and 19.2 µM, respectively.

For `Cc1cccc(COC(Cn2ccnc2)c2ccc(Cl)cc2Cl)c1` (centres undefined), the Ratio IC50 in data set [1] came to 2.1. Further, the IC50 came out at 1.2 µM in data set [2], 30.7 µM in data set [3] and 14.6 µM in [4].

With `Cc1ccc(COC(Cn2ccnc2)c2ccc(Cl)cc2Cl)cc1C` (centres undefined), the Ratio IC50 in data set [1] was found to be 1.6. The IC50 in data set [2] was determined as 2.2 µM; in data set [3] it was 17.3 µM; in [4], 11.2 µM.

A word on the IC50: it is the concentration at which inhibition is half-maximal.
